Experimental data reported in patent publication US10654834B2 (Venenum Biodesign, LLC, priority 2016, dated 2020).

Legend:
[1] = Pharmacokinetic profile in mice after oral gavage; assay type: in vivo, mouse; conditions: mouse; fasted male Hilltop mice, 10 mg/kg oral gavage, plasma; read-out: Cmax
Summary of the method: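 Fasted 8-week male Hilltop mice given 10 mg/kg orally in 20% PEG400/80% 0.5% CMC + 0.25% Tween-80. EDTA plasma sampled 0-4 h, measured by LC-MS/MS (MRM, positive ion); Cmax and AUC derived non-compartmentally, values being means of three mice.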

[2] = molecular target: T1, mouse TGR5 receptor (Mus musculus, UniProt Q80SS6); assay: Mouse TGR5 HTRF cAMP production assay (HEK293-EBNA cells, Cisbio cAMP HiRange kit); assay type: cell-based; conditions: HEK293-EBNA cells overexpressing mouse TGR5, HTRF cAMP assay
T1 construct: host or cells: HEK293-EBNA (293 c18, ATCC CRL10852)
T1 sequence (Q80SS6 1-329): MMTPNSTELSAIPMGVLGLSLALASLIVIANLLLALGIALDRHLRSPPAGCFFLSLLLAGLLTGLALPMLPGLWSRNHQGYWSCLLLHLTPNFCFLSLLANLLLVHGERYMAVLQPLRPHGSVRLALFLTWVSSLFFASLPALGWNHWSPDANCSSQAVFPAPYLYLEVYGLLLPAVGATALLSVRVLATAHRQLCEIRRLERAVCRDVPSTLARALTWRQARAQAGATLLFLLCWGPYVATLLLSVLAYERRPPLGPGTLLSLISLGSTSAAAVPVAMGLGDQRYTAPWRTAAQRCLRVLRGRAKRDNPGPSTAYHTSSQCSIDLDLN
Summary of the method: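 HEK293-EBNA cells stably expressing mouse TGR5 (episomal vector) were suspended in serum-free DMEM with 500 μM IBMX and exposed to 12-point half-log compound dilutions for 1 h at room temperature. cAMP was detected by HTRF (d2-cAMP/anti-cAMP cryptate, 1 h, room temperature), giving EC50 from duplicates.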

N#Cc1ccc(CCNC(=O)[C@@H]2CCCN2c2cc(N3CCC(CO)CC3)nc(C(F)(F)F)n2)cc1 [Compound 1, (S)—N-(4-cyanophenethyl)-1-(6-(4-(hydroxymethyl)piperidin-1-yl)-2-(trifluoromethyl)pyrimidin-4-yl)pyrrolidine-2-carboxamide]
Cmax [1]: 233 ng/mL

N#Cc1ccc(CCNC(=O)[C@@H]2CCCN2c2cc(N3CCC(CCCC(=O)NCP(=O)(O)O)CC3)nc(C(F)(F)F)n2)cc1 [Compound 64, (S)-((4-(1-(6-(2-((4-cyanophenethyl)carbamoyl)pyrrolidin-1-yl)-2-(trifluoromethyl)pyrimidin-4-yl)piperidin-4-yl)butanamido)methyl)-phosphonic acid]
EC50 [2]: < 100 nM | Cmax [1]: 2.9 ng/mL

N#Cc1ccc(CCNC(=O)[C@@H]2CCCN2c2cc(N3CCC(CCCC(=O)NCS(=O)(=O)O)CC3)nc(C(F)(F)F)n2)cc1 [Compound 66, (S)-(4-(1-(6-(2-((4-cyanophenethyl)carbamoyl)pyrrolidin-1-yl)-2-(trifluoromethyl)pyrimidin-4-yl)piperidin-4-yl)butanamido)-methanesulfonic acid]
EC50 [2]: < 100 nM | Cmax [1]: 7.3 ng/mL

N#Cc1ccc(CCNC(=O)[C@@H]2CCCN2c2cc(N3CCC(CCCC(=O)NCC(N)=O)CC3)nc(C(F)(F)F)n2)cc1 [Compound 68, (S)-1-(6-(4-(4-((2-amino-2-oxoethyl)amino)-4-oxobutyl)piperidin-1-yl)-2-(trifluoromethyl)pyrimidin-4-yl)-N-(4-cyanophenethyl)pyrrolidine-2-carboxamide]
EC50 [2]: < 100 nM | Cmax [1]: 15 ng/mL

N#Cc1ccc(CCNC(=O)[C@@H]2CCCN2c2cc(N3CCC(CCCC(=O)N[C@@H](CCCNC(=N)N)C(=O)O)CC3)nc(C(F)(F)F)n2)cc1 [Compound 72, (S)-2-(4-(1-(6-((S)-2-((4-cyanophenethyl)carbamoyl)pyrrolidin-1-yl)-2-(trifluoromethyl)pyrimidin-4-yl)piperidin-4-yl)butanamido)-5-guanidinopentanoic acid]
EC50 [2]: < 100 nM | Cmax [1]: 1.6 ng/mL

N#Cc1ccc(CCNC(=O)[C@@H]2CCCN2c2cc(N3CCC(CCCC(=O)N[C@@H](CCC(=O)O)C(=O)O)CC3)nc(C(F)(F)F)n2)cc1 [Compound 76, (S)-2-(4-(1-(6-((S)-2-((4-cyanophenethyl)carbamoyl)pyrrolidin-1-yl)-2-(trifluoromethyl)pyrimidin-4-yl)piperidin-4-yl)butanamido)-pentanedioic acid]
EC50 [2]: < 100 nM | Cmax [1]: 3 ng/mL

N#Cc1ccc(CCNC(=O)[C@@H]2CCCN2c2cc(N3CCC(CCNC(=O)NCCS(=O)(=O)O)CC3)nc(C(F)(F)F)n2)cc1 [Compound 78, (S)-2-(3-(2-(1-(6-(2-((4-cyanophenethyl)carbamoyl)pyrrolidin-1-yl)-2-(trifluoromethyl)pyrimidin-4-yl)piperidin-4-yl)ethyl)ureido)ethanesulfonic acid]
EC50 [2]: < 100 nM | Cmax [1]: 1.3 ng/mL

N#Cc1ccc(CCNC(=O)[C@@H]2CCCN2c2cc(N3CCC(CCNC(=O)NCCS(N)(=O)=O)CC3)nc(C(F)(F)F)n2)cc1 [Compound 80, (S)-N-(4-cyanophenethyl)-1-(6-(4-(2-(3-(2-sulfamoylethyl)ureido)-ethyl)piperidin-1-yl)-2-(trifluoromethyl)pyrimidin-4-yl)pyrrolidine-2-carboxamide]
EC50 [2]: < 100 nM | Cmax [1]: 1.2 ng/mL

N#Cc1ccc(CCNC(=O)[C@@H]2CCCN2c2cc(N3CCC(CCNC(=O)NCCC(=O)O)CC3)nc(C(F)(F)F)n2)cc1 [Compound 81, (S)-3-(3-(2-(1-(6-(2-((4-cyanophenethyl)carbamoyl)pyrrolidin-1-yl)-2-(trifluoromethyl)pyrimidin-4-yl)piperidin-4-yl)ethyl)ureido)-propanoic acid]
EC50 [2]: < 100 nM | Cmax [1]: 60 ng/mL

O=C(NCCC1CCN(c2cc(N3CCC[C@H]3C(=O)NCCc3ccc(C(F)(F)F)cc3)nc(C(F)(F)F)n2)CC1)NCCS(=O)(=O)O [Compound 86, (S)-2-(3-(2-(1-(2-(trifluoromethyl)-6-(2-((4-(trifluoromethyl)phenethyl)-carbamoyl)pyrrolidin-1-yl)pyrimidin-4-yl)piperidin-4-yl)ethyl)ureido)-ethanesulfonic acid]
EC50 [2]: < 100 nM | Cmax [1]: 13 ng/mL

N#Cc1ccc(CCNC(=O)[C@@H]2CCCN2c2cc(N3CCC(COCC(=O)O)CC3)nc(C(F)(F)F)n2)cc1 [Compound 88, (S)-2-((1-(6-(2-((4-cyanophenethyl)carbamoyl)pyrrolidin-1-yl)-2-(trifluoromethyl)pyrimidin-4-yl)piperidin-4-yl)methoxy)acetic acid]
EC50 [2]: < 100 nM | Cmax [1]: 630 ng/mL

CS(=O)(=O)NCCNC(=O)CCCC1CCN(c2cc(N3CCC[C@H]3C(=O)NCCc3ccc(C(F)(F)F)cc3)nc(C(F)(F)F)n2)CC1 [Compound 91, (S)-1-(6-(4-(4-((2-(methylsulfonamido)ethyl)amino)-4-oxobutyl)piperidin-1-yl)-2-(trifluoromethyl)pyrimidin-4-yl)-N-(4-(trifluoromethyl)phenethyl)pyrrolidine-2-carboxamide]
EC50 [2]: < 100 nM | Cmax [1]: 10 ng/mL

CS(=O)(=O)NCCNC(=O)CCCC1CCN(c2cc(N3CCC[C@H]3C(=O)NCCc3ccc(C#N)cc3)nc(C(F)(F)F)n2)CC1 [Compound 93]
EC50 [2]: < 100 nM | Cmax [1]: 5 ng/mL

O=C(CCCC1CCN(c2cc(N3CCC[C@H]3C(=O)NCCc3ccc(C(F)(F)F)cc3)nc(C(F)(F)F)n2)CC1)NCCNc1ncnc2c1ncn2[C@@H]1O[C@H](CO)C(O)C1O (stereo partly drawn) [Compound 96, (2S)-1-(6-(4-(4-((2-((9-((2R,5R)-3,4-dihydroxy-5-(hydroxymethyl)-tetrahydrofuran-2-yl)-9H-purin-6-yl)amino)ethyl)amino)-4-oxobutyl)piperidin-1-yl)-2-(trifluoromethyl)-pyrimidin-4-yl)-N-(4-(trifluoromethyl)-phenethyl)-pyrrolidine-2-carboxamide]
EC50 [2]: < 100 nM | Cmax [1]: 1.1 ng/mL

N#Cc1ccc(CCNC(=O)[C@@H]2CCCN2c2cc(N3CCC(CCCC(=O)NCCNc4cc(C(=O)O)ncn4)CC3)nc(C(F)(F)F)n2)cc1 [Compound 101, (S)-6-((2-(4-(1-(6-(2-((4-cyanophenethyl)carbamoyl)pyrrolidin-1-yl)-2-(trifluoromethyl)pyrimidin-4-yl)piperidin-4-yl)butanamido)ethyl)amino)-pyrimidine-4-carboxylic acid]
EC50 [2]: < 100 nM | Cmax [1]: 0.7 ng/mL
